Tested on: 616215-338-R-J1-PDC tumor spheroids, viability
Experiment: Anticancer human tumor 616215-338-R-J1-PDC patient-derived colon adenocarcinoma cell line growth inhibition [GQUAD]
Conditions: spheroids with HUVEC and MSC; for IC50: curve of first compound; for viability, T/C: stronger effect = lower value
In short: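 Viability of tumor cells grown as complex spheroids with endothelial and stromal cells, exposed to drug combinations. Top concentration at or near clinical Cmax (else 10 microM), diluted in half-log increments.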

[1] = second compound 0.0316 µM, first compound 0.0316 µM
[2] = second compound 0.0316 µM, first compound 0.1 µM
[3] = second compound 0.0316 µM, first compound 0.316 µM
[4] = second compound 0.0316 µM, first compound 1 µM
[5] = second compound 0.0316 µM, first compound 3.16 µM
[6] = second compound 0.0316 µM, first compound 10 µM
[7] = second compound 0.1 µM, first compound 0.0316 µM
[8] = second compound 0.1 µM, first compound 0.1 µM
[9] = second compound 0.1 µM, first compound 0.316 µM
[10] = second compound 0.1 µM, first compound 1 µM
[11] = second compound 0.1 µM, first compound 3.16 µM
[12] = second compound 0.1 µM, first compound 10 µM
[13] = second compound 0.316 µM, first compound 0.0316 µM
[14] = second compound 0.316 µM, first compound 0.1 µM
[15] = second compound 0.316 µM, first compound 0.316 µM
[16] = second compound 0.316 µM, first compound 1 µM
[17] = second compound 0.316 µM, first compound 3.16 µM
[18] = second compound 0.316 µM, first compound 10 µM
[19] = second compound 1 µM, first compound 0.0316 µM
[20] = second compound 1 µM, first compound 0.1 µM
[21] = second compound 1 µM, first compound 0.316 µM
[22] = second compound 1 µM, first compound 1 µM
[23] = second compound 1 µM, first compound 3.16 µM
[24] = second compound 1 µM, first compound 10 µM
[25] = second compound 3.16 µM, first compound 0.0316 µM
[26] = second compound 3.16 µM, first compound 0.1 µM
[27] = second compound 3.16 µM, first compound 0.316 µM
[28] = second compound 3.16 µM, first compound 1 µM
[29] = second compound 3.16 µM, first compound 3.16 µM
[30] = second compound 3.16 µM, first compound 10 µM
[31] = second compound 10 µM, first compound 0.0316 µM
[32] = second compound 10 µM, first compound 0.1 µM
[33] = second compound 10 µM, first compound 0.316 µM
[34] = second compound 10 µM, first compound 1 µM
[35] = second compound 10 µM, first compound 3.16 µM
[36] = second compound 10 µM, first compound 10 µM
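Note: spheroids exposed to agents for 7 days before readout.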
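Throughout, for viability, T/C: percent viability relative to DMSO vehicle control wells taken as 100%.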

With `Nc1ccn(C2OC(CO)C(O)C2(F)F)c(=O)n1` (centres undefined) + Cc1[nH]c2ccc(F)cc2c1-c1nc2c3cccnc3c3ncccc3c2[nH]1 as the molecule, how does the IC50 (second compound 0.0316 µM) read?
The IC50 was less than 31.6 nM.

What about the IC50 (second compound 0.1 µM) of the same molecule?
Its IC50 is 33.6 nM.

And the IC50 (second compound 0.316 µM)?
Its IC50 is less than 31.6 nM.

What about the IC50 (second compound 1 µM) of the same molecule?
The IC50 was less than 31.6 nM.

What about the IC50 (second compound 3.16 µM) of the same molecule?
The IC50 was less than 31.6 nM.

And the IC50 (second compound 10 µM)?
Its IC50 is less than 31.6 nM.

And the viability, T/C [1]?
The viability, T/C was 39%.

What about the viability, T/C [2] of the same molecule?
The viability, T/C was 26.1%.

What about the viability, T/C [3] of the same molecule?
Its viability, T/C is 19.7%.

What about the viability, T/C [4] of the same molecule?
Its viability, T/C is 13.7%.

And the viability, T/C [5]?
Its viability, T/C is 14%.

And the viability, T/C [6]?
Its viability, T/C is 16.1%.

What about the viability, T/C [7] of the same molecule?
Its viability, T/C is 51.6%.

And the viability, T/C [8]?
Its viability, T/C is 20.2%.

What about the viability, T/C [9] of the same molecule?
Its viability, T/C is 13.4%.

What about the viability, T/C [10] of the same molecule?
Its viability, T/C is 12.9%.

And the viability, T/C [11]?
The viability, T/C was 16.2%.

What about the viability, T/C [12] of the same molecule?
Its viability, T/C is 17.1%.

And the viability, T/C [13]?
Its viability, T/C is 43.9%.

And the viability, T/C [14]?
The viability, T/C was 23.8%.

And the viability, T/C [15]?
Its viability, T/C is 14.6%.

And the viability, T/C [16]?
Its viability, T/C is 13.9%.

What about the viability, T/C [17] of the same molecule?
Its viability, T/C is 16%.

And the viability, T/C [18]?
Its viability, T/C is 13.6%.

And the viability, T/C [19]?
Its viability, T/C is 39.2%.

And the viability, T/C [20]?
The viability, T/C was 31.1%.

And the viability, T/C [21]?
Its viability, T/C is 14.8%.

What about the viability, T/C [22] of the same molecule?
The viability, T/C was 11.8%.

And the viability, T/C [23]?
Its viability, T/C is 13.4%.

What about the viability, T/C [24] of the same molecule?
The viability, T/C was 13.8%.

What about the viability, T/C [25] of the same molecule?
Its viability, T/C is 29.9%.

What about the viability, T/C [26] of the same molecule?
The viability, T/C was 22%.

And the viability, T/C [27]?
The viability, T/C was 18.2%.

And the viability, T/C [28]?
The viability, T/C was 13.8%.

What about the viability, T/C [29] of the same molecule?
The viability, T/C was 11%.

What about the viability, T/C [30] of the same molecule?
The viability, T/C was 14.6%.

And the viability, T/C [31]?
The viability, T/C was 38.7%.

What about the viability, T/C [32] of the same molecule?
Its viability, T/C is 17.2%.

What about the viability, T/C [33] of the same molecule?
The viability, T/C was 12.4%.

What about the viability, T/C [34] of the same molecule?
The viability, T/C was 14%.

And the viability, T/C [35]?
Its viability, T/C is 13.8%.

What about the viability, T/C [36] of the same molecule?
Its viability, T/C is 13.8%.

Which results are given for `COc1ncnc(C2CC2)c1-c1ncc2cnn(Cc3ccc(-c4nc(C(F)(F)F)cn4C(C)C)cc3)c2n1` + Cc1cnc(CNC(=O)c2c(=O)c3ccc(N4CCCN(C)CC4)nc3n3c2sc2ccccc23)cn1?
IC50 (second compound 0.0316 µM): > 10000 nM; IC50 (second compound 0.1 µM): > 10000 nM; IC50 (second compound 0.316 µM): < 31.6 nM; IC50 (second compound 1 µM): < 31.6 nM; IC50 (second compound 3.16 µM): < 31.6 nM; IC50 (second compound 10 µM): < 31.6 nM; viability, T/C [1]: 108%; viability, T/C [2]: 98.7%; viability, T/C [3]: 113%; viability, T/C [4]: 97.2%; viability, T/C [5]: 108%; viability, T/C [6]: 100%; viability, T/C [7]: 70.8%; viability, T/C [8]: 72.2%; viability, T/C [9]: 62.1%; viability, T/C [10]: 57.5%; viability, T/C [11]: 64.2%; viability, T/C [12]: 58.3%; viability, T/C [13]: 48.9%; viability, T/C [14]: 46%; viability, T/C [15]: 34.3%; viability, T/C [16]: 34.8%; viability, T/C [17]: 41.4%; viability, T/C [18]: 66.7%; viability, T/C [19]: 22.7%; viability, T/C [20]: 35.4%; viability, T/C [21]: 36.1%; viability, T/C [22]: 32.6%; viability, T/C [23]: 34.3%; viability, T/C [24]: 31.3%; viability, T/C [25]: 23%; viability, T/C [26]: 28.7%; viability, T/C [27]: 22.4%; viability, T/C [28]: 26.7%; viability, T/C [29]: 40.3%; viability, T/C [30]: 27.1%; viability, T/C [31]: 13.8%; viability, T/C [32]: 28.4%; viability, T/C [33]: 21.3%; viability, T/C [34]: 25.5%; viability, T/C [35]: 35.1%; viability, T/C [36]: 22.1%

From PubChem BioAssay AID2060493 (Molecular Pharmacology Branch, DTP, NCI, 2025)
